In series [1] the test system is SK-OV-3 human ovarian cancer cell strain. The series can be described thus: In vitro anti-proliferation of tumor cells (CCK-8), SK-OV-3. It is filed as cell-based. As to conditions: SK-OV-3, 72 hours. How it is done: (§1) Experimental Example 2: Determination of the Compounds According to the Present Invention for IC50 of the In Vitro Anti-Proliferation of Tumor Cells
SK-OV-3 human ovarian cancer cell strain (purchased from Shanghai Institute of Cell Biology, Chinese Academy of Sciences);
(§2) Preparation of a compound: the compound was diluted with DMSO to a final concentration of 10 mM.
(§3) a) Cells in logarithmic growth phase were collected, counted, and re-suspended in complete medium. The concentration of cells was adjusted to a suitable concentration (determined depending on the result of optimization experiment of cell density), and the cells were seeded to a 96-well plate at 100 μl cell suspension per well. The cells were incubated in an incubator at 37° C., 100% relative humidity, 5% CO2 for 24 hours.
(§4) b) A test compound was diluted with the culture medium to 500 μM, and then gradient dilution was performed for 8 times. Cells were added at 25 μl/well. The final concentrations of the compound was in a range from 100 μM and 0 μM, 4-fold diluted, including 10 concentrations.
(§5) c) The cells were incubated in an incubator at 37° C., 100% relative humidity, 5% CO2 for 72 hours.
(§6) d) The culture medium was withdraw and discarded, the complete medium containing 10% CCK-8 was added, and then the cells were incubated in an incubator at 37° C. for 2-4 hours.
(§7) IC50 curve was fitted and IC50 value was calculated by professional software GraphPad Prism 5.0.
(§8) In the experiment, the compounds according to the present invention were determined for their IC50 values of in vitro anti-proliferation of tumor cell strains. The final concentrations of the compounds was in a range from 100 μM and 0 μM, 4-fold diluted, including 10 concentrations.

Series [2] has as its system HCT116 human colon cancer cell strain. As to the kind of experiment: In vitro anti-proliferation of tumor cells (CCK-8), HCT-116. It is filed as cell-based. As to conditions: HCT-116, 72 hours. How it is done: as §1
HCT116 human colon cancer cell strain (purchased from Shanghai Institute of Cell Biology, Chinese Academy of Sciences);
as §2, §3, §4, §5, §6, §7, §8

Series [3] deals with 786-O human renal clear cell carcinoma cell strain. As to the kind of experiment: In vitro anti-proliferation of tumor cells (CCK-8), 786-O. The series is classed as cell-based. As to conditions: 786-0, 72 hours. The method, then:
as §1
786-O human renal clear cell carcinoma cell strain (purchased from Shanghai Institute of Cell Biology, Chinese Academy of Sciences);
as §2, §3, §4, §5, §6, §7, §8

In series [4] the test system is A498 human renal carcinoma cell strain. As to the kind of experiment: In vitro anti-proliferation of tumor cells (CCK-8), A498. The series is classed as cell-based. As to conditions: A498, 72 hours. How it is done: as §1
A498 human renal carcinoma cell strain (purchased from Shanghai Institute of Cell Biology, Chinese Academy of Sciences);
as §2, §3, §4, §5, §6, §7, §8

Series [5] relates to MDA-MB-231 human mammary cancer cell strain. The series can be described thus: In vitro anti-proliferation of tumor cells (CCK-8), MDA-MB-231. It is filed as cell-based. As to conditions: for IC50: Homo sapiens, MDA-MB-231, 72 hours, CCK-8. How it is done:
as §1
MDA-MB-231 human mammary cancer cell strain (purchased from Shanghai Institute of Cell Biology, Chinese Academy of Sciences);
as §2, §3, §4, §5, §6, §7, §8

Series [6] has as its system MiaPaCa-2 human pancreatic cancer cell strain. As to the kind of experiment: In vitro anti-proliferation of tumor cells (CCK-8), MiaPaCa-2. It is filed as cell-based. As to conditions: MIA PaCa-2, MiaPaCa-2, 72 hours. How it is done: as §1
MiaPaCa-2 human pancreatic cancer cell strain (purchased from American ATCC);
as §2, §3, §4, §5, §6, §7, §8

Series [7] concerns HepG2 human liver cancer cell strain. As to the kind of experiment: In vitro anti-proliferation of tumor cells (CCK-8), HepG2. The series is classed as cell-based. As to conditions: HepG2, 72 hours. How it is done: as §1
HepG2 human liver cancer cell strain (purchased from Shanghai Institute of Cell Biology, Chinese Academy of Sciences);
as §2, §3, §4, §5, §6, §7, §8

Series [8] has as its system NCI-H460 Human large cell lung cancer cell strain. As to the kind of experiment: In vitro anti-proliferation of tumor cells (CCK-8), NCI-H460. It is filed as cell-based. As to conditions: NCI-H460, 72 hours. The method, then: as §1
NCI-H460 Human large cell lung cancer cell strain (purchased from Shanghai Institute of Cell Biology, Chinese Academy of Sciences);
as §2, §3, §4, §5, §6, §7, §8

In series [9] the test system is HL-60 human acute myeloid leukemia cell strain. As to the kind of experiment: In vitro anti-proliferation of tumor cells (CCK-8), HL-60. The series is classed as cell-based. As to conditions: HL-60, 72 hours. The method, then:
as §1
HL-60 human acute myeloid leukemia cell strain (purchased from Shanghai Institute of Cell Biology, Chinese Academy of Sciences);
as §2, §3, §4, §5, §6, §7, §8

The nature of the next series: Pharmacokinetics in mice. As to conditions: female, plasma, CD-1 mouse; for bioavailability: PO 5 mg/kg vs IV 1 mg/kg, read-out: F (oral bioavailability); for AUC(0-t): read-out: AUClast (area under the curve). The series is classed as in vivo. The method, then: Administration route: intravenous injection (IV); per os (PO).
Fasting condition: free access to water, no fasting.
The mice were weighed before administration, and the administration volume was calculated based on their body weights (IV group: 4 mL/kg; PO group: 10 mL/kg).
Administration route and dose: Intravenous (IV) group: 1 mg/kg; Oral (PO) group: 5 mg/kg.
Animal grouping: 3 mice/group, an IV group and a PO group for each test compound.
After administration, 30 μL whole blood was collected from rim of the eyes of mice in the IV group at each pre-determined time point (5 min, 15 min, 30 min, 1 h, 2 h, 4 h, 8 h, 24 h), and 30 μL whole blood was collected from rim of the eyes of mice in the PO group at each pre-determined time point (15 min, 30 min, 1 h, 2 h, 4 h, 8 h, 24 h). The whole blood was centrifuged (6,000 rpm, 5 min) to get blood plasma. All the blood plasma samples were stored in a refrigerator of −80° C. for further analysis.
Conditions of LC/MS/MS was as follows:
Pharmacokinetic parameters were estimated according to non-compartment model (calculated by WinNonlin software): […]
IV paramater: t1/2 (hr); C0 (ng/mL); AUClast (hr*ng/mL); AUCInf (hr*ng/mL); AUC Extr (%); Vz (L/kg); Vss (L/kg); CL (mL/min/kg); MRT (hr).
PO parameter: t1/2 (hr); tmax (hr); Cmax (ng/mL); AUClast (hr*ng/mL); AUCInf (hr*ng/mL); AUC Extr (%); MRT (hr); AUC/D (hr*mg/mL); F (%).

Where [10] appears, read: PO 5 mg/kg, average of three mice.

Broadly, the IC50 is the concentration needed to halve the response being measured. One may read the bioavailability as the share of a dose that reaches the circulation, judged against a reference dose that is usually intravenous.

Each structure is given as a SMILES string.

With `Cn1cc(-c2nccc(Oc3ccc(NC(=O)Nc4ccc(Cl)c(C(F)(F)F)c4)cc3)c2Cl)cn1` [Example 2, 1-(4-chloro-3-(trifluoromethyl)phenyl)-3-(4-(3-chloro-2-(1-methyl-pyrazol-4-yl)-pyridin-4-yl-oxy)phenyl)urea], the IC50 in series [1] was 5.76 µM; in [2], 3.16 µM; in series [3], 2.77 µM; in series [4] it was 4.71 µM; in series [5] it was 3.05 µM; in [6], 2.34 µM. In addition, the IC50 in series [7] was 0.808 µM; in series [8], 1.05 µM; in [9], 18.2 µM. In addition, in series [5] (MDA-MB-231 cell line), the “IC50 as fold of that of Sorafenib” value was determined as 0.30 fold. Also, in “Pharmacokinetics in mice”, the bioavailability came to 82.9%. For the same compound, the AUC(0-t) in the series “Pharmacokinetics in mice” (setting [10]) was determined as 56600 ng·h/mL. Also, the Cmax in the series “Pharmacokinetics in mice” (PO 5 mg/kg, average of three mice, read-out: Cmax (peak concentration)) turned out to be 3010 ng/mL.

On to `CNC(=O)c1cc(Oc2ccc(NC(=O)Nc3ccc(Cl)c(C(F)(F)F)c3)cc2)ccn1` [Comparative example 1, Sorafenib, reference compound], for which the 50% inhibitory concentration (IC50) in series [1] was found to be 17.9 µM; in series [2] it was 4.56 µM; in [3] it was 4.51 µM; in series [4], 5.49 µM; in [5], 10 µM; in series [6] it was 3.06 µM. Besides, the IC50 in [7] came to 0.947 µM; in series [8] it was 1.27 µM; in [9], 22 µM. Besides, in the series “Pharmacokinetics in mice”, the bioavailability was 78.6%. The AUC(0-t) in the series “Pharmacokinetics in mice” (setting [10]) amounted to 18900 ng·h/mL.

The record behind these values is patent publication US9902709B2, “Polysubstituted pyridine compound, preparation method, use and pharmaceutical composition” (PEKING UNIVERSITY FOUNDER GROUP CO., LTD., priority 2014, dated 2018).
